Test results taken from US20250108019A1, “USE OF LACTIC ACID IN PRODUCT FOR REGULATING AND PROMOTING TISSUE GROWTH” (CHANGCHUN SINOBIOMATERIALS CO., LTD., priority 2022, published 2025).

Assays:
muscle—rectus femoris = assay: Muscle tissue diameter after local injection in mice (Sirius red, 100× optical microscope); assay type: in vivo; conditions: for Muscle tissue measured value, mean: 0.1 ml injection daily, experimental side
Text: (§1) Experimental animals: Male experimental mice weighing 23±4 g were selected and divided into several groups, with 10 mice in each group. Experimental site: Different tissue sites of mice were selected for the test, specifically muscle—rectus femoris, tendon—Achilles tendon, cartilage—ear cartilage tissue. Experimental group: ? 25 mmol/L aqueous lactic acid solution • ? 50 mmol/L aqueous lactic acid solution • ? 75 mmol/L aqueous lactic acid solution and • ? 0.9% sodium chloride injection Experimental procedure: The right side of the experimental mouse was the experimental side (injected with lactic acid solutions at different concentrations), and the left side was the control side (injected with 0.9% sodium chloride injection). The experiment started with a single injection of 0.1 ml of the corresponding experimental solution at the experimental side every day from 1 to 7 days. […] The experimental and control sides of each mouse were selected for fixation and pathological histological examination. • 1) The tissue to be observed was cut and fixed, and then stained with Sirius red to observe the effects of the injection solution on the tissues at various sites. • 2) The experimental side and the control side were randomly selected for sectioning, the diameter of each tissue was measured under a 100× optical microscope, and the average value of the experimental side and the control side was calculated using the following formula: [formula] The diameters on both sides were compared, and the effects of the lactic acid solution on each tissue site were analyzed using the SSPS 21 calculation results.

tendon—Achilles tendon = assay: Tendon diameter after local injection in mice (Sirius red, 100× optical microscope); assay type: in vivo; conditions: for Tendon measured value, mean: 0.1 ml injection daily, experimental side
Text: as §1

[1] = tested on: cartilage—ear cartilage tissue; assay: Ear cartilage diameter after local injection in mice (Sirius red, 100× optical microscope); assay type: in vivo; conditions: 50 mmol/L; for Ear cartilage tissue measured value, mean: 0.1 ml injection daily, experimental side
Text: as §1

sciatic nerve [2] = assay: Sciatic function index (SFI) after sciatic nerve clamp injury; assay type: in vivo, mice; conditions: 0.1 ml of 50 mmol/L intraperitoneal
Description: Experimental animals: Male experimental mice weighing 30˜35 g were selected and divided into 3 groups, with 26 mice in each group. Experimental site: The sciatic nerve of mice was selected. Experimental groups: ? model group (injury caused by sciatic nerve clamp injury); ? treatment group (after injuried by sciatic nerve clamp, 0.1 ml of 50 mmol/L aqueous lactic acid solution was given by intraperitoneal injection each time); and ? sham group (only the sciatic nerve was freed). Experimental procedure: The treatment group was given medication for 14 consecutive days, and the model group and sham group were given an equal amount of 0.9% sodium chloride injection. • (1) The functional recovery of the sciatic nerve of mice after injury was tracked and evaluated by using the sciatic function index (SFI) at 7 and 14 days after surgery. […] The footprints of the left injured side (E) and the right normal side (N) of the experimental mice were measured. The footprint length (PL), the distance from the first toe to the fifth toe (TS), and the distance from the second toe to the fourth toe (IT) were recorded and put into the formula for calculation. […] The formula is as follows: SFI=109.5(ETS−NTS)/NTS−38.3(EPL−NPL)/NPL+13.3(EIT−NIT)/NIT−8.8 • (2) The degree of toe spread on the injured side was recorded at 3, 7, and 14 days after surgery. […]

sciatic nerve [3] = assay: Toe spread score after sciatic nerve clamp injury; assay type: in vivo, mice; conditions: 0.1 ml of 50 mmol/L intraperitoneal
Description: Experimental animals: Male experimental mice weighing 30˜35 g were selected and divided into 3 groups, with 26 mice in each group. Experimental site: The sciatic nerve of mice was selected. Experimental groups: ? model group (injury caused by sciatic nerve clamp injury); ? treatment group (after injuried by sciatic nerve clamp, 0.1 ml of 50 mmol/L aqueous lactic acid solution was given by intraperitoneal injection each time); and ? sham group (only the sciatic nerve was freed). Experimental procedure: The treatment group was given medication for 14 consecutive days, and the model group and sham group were given an equal amount of 0.9% sodium chloride injection. […] The evaluation grades are classified as scores 0˜3, with no spread being score 0 and full spread being score 3.

## CC(O)C(=O)O (centres unmarked) [lactic acid]
muscle—rectus femoris; 25 mmol/L, 3 days
  Muscle tissue measured value, mean: 64.13 μm
muscle—rectus femoris; 25 mmol/L, 7 days
  Muscle tissue measured value, mean: 79.66 μm
muscle—rectus femoris; 25 mmol/L, 14 days, * P<0.05 vs control side
  Muscle tissue measured value, mean: 123.8* μm
muscle—rectus femoris; 25 mmol/L, 21 days
  Muscle tissue measured value, mean: 112.1 μm
muscle—rectus femoris; 25 mmol/L, 14 days, FIG. 1
  Muscle tissue on the experimental side, histological observation: significantly thickened
muscle—rectus femoris; 50 mmol/L, 3 days
  Muscle tissue measured value, mean: 73.49 μm
muscle—rectus femoris; 50 mmol/L, 7 days, ** P<0.01 vs control side
  Muscle tissue measured value, mean: 69.14** μm
muscle—rectus femoris; 50 mmol/L, 14 days, * P<0.05 vs control side
  Muscle tissue measured value, mean: 119.5* μm
muscle—rectus femoris; 50 mmol/L, 21 days
  Muscle tissue measured value, mean: 111.9 μm
muscle—rectus femoris; 50 mmol/L, 7 days, FIG. 2
  Muscle tissue on the experimental side, histological observation: significantly thickened
tendon—Achilles tendon; 25 mmol/L, 3 days, * P<0.05 vs control
  Tendon measured value, mean: 853.9* μm
tendon—Achilles tendon; 25 mmol/L, 14 days
  Tendon measured value, mean: 877.1 μm
tendon—Achilles tendon; 25 mmol/L, 21 days
  Tendon measured value, mean: 438.3 μm
tendon—Achilles tendon; 25 mmol/L, 3 days after injection, FIG. 3
  Achilles tendon on the experimental side, histological observation: significantly thickened
tendon—Achilles tendon; 50 mmol/L, 3 days
  Tendon measured value, mean: 484.6 μm
tendon—Achilles tendon; 50 mmol/L, 7 days
  Tendon measured value, mean: 547.8 μm
tendon—Achilles tendon; 50 mmol/L, 14 days, * P<0.05 vs control
  Tendon measured value, mean: 769.5* μm
tendon—Achilles tendon; 50 mmol/L, 21 days
  Tendon measured value, mean: 543.9 μm
tendon—Achilles tendon; 50 mmol/L, Day 14, FIG. 4
  Achilles tendon on the experimental side, histological observation: significantly thickened
tendon—Achilles tendon; 75 mmol/L, 3 days, * P<0.05 vs control
  Tendon measured value, mean: 970.9* μm
tendon—Achilles tendon; 75 mmol/L, 7 days, * P<0.05 vs control
  Tendon measured value, mean: 832.2* μm
tendon—Achilles tendon; 75 mmol/L, 14 days
  Tendon measured value, mean: 578.2 μm
tendon—Achilles tendon; 75 mmol/L, 21 days, * P<0.05 vs control
  Tendon measured value, mean: 970.1* μm
tendon—Achilles tendon; 75 mmol/L, Day 3, 7, and 21, FIG. 5
  Achilles tendon on the experimental side, histological observation: significantly thickened
[1]; 3 days
  Ear cartilage tissue measured value, mean: 158.8 μm
[1]; 7 days
  Ear cartilage tissue measured value, mean: 237.3 μm
[1]; 14 days
  Ear cartilage tissue measured value, mean: 170.3 μm
[1]; 21 days, * P<0.05 vs control side
  Ear cartilage tissue measured value, mean: 253.5* μm
[1]; Day 21, FIG. 6
  Cross-section of the ear cartilage on the experimental side, histological observation: significantly thickened
Sciatic nerve [2]; 7 days after surgery, FIG. 7
  SFI score: significantly lower than those in the sham group
Sciatic nerve [2]; 14 days after surgery, P<0.01, FIG. 7
  SFI score: significantly increased
Sciatic nerve [3]; 3 days after surgery
  Toe spread score (0~3): 0 ± 0.4
Sciatic nerve [3]; 7 days after surgery
  Toe spread score (0~3): 0.9 ± 0.6
Sciatic nerve [3]; 10 days after surgery
  Toe spread score (0~3): 2 ± 0.3
Sciatic nerve [3]; 14 days after surgery
  Toe spread score (0~3): 2.5 ± 0.5
